What follows are compounds tested against GST-hRIPK1 (8-327) (Homo sapiens (Human), UniProt Q13546) (assay: Fluorescent Polarization Binding (FP Binding) assay, RIPK1). Conditions: 10 nM GST-hRIPK1 (8-327), 5 nM fluorescent-labeled ligand, RT, 30 min, mean of at least two independent experiments.
Outline: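 Binding by fluorescence polarisation at RT: 10 nM baculovirus-expressed GST-hRIPK1 (8-327) and 5 nM fluorescent ligand, 30 min, in 50 mM HEPES pH 7.5, 50 mM MgCl2, 0.02% CHAPS, 1% DMSO. FP read at ex 531/em 595 nm. IC50 from normalised percent inhibition, mean of ≥2 experiments.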

Chain of GST-hRIPK1 (8-327) (Q13546 8-327): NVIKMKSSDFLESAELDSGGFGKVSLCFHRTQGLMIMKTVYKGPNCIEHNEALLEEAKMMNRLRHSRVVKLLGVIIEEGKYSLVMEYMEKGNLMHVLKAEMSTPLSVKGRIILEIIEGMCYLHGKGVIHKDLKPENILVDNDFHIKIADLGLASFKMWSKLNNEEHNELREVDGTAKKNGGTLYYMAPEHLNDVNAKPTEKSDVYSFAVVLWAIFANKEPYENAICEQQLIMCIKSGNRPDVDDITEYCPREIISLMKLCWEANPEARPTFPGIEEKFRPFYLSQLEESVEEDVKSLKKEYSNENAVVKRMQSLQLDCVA

With `CC(C)(CF)C(=O)N1CCOc2c(C#N)cncc2C1` [Example 144, 4-(3-fluoro-2,2-dimethyl-propanoyl)-3,5-dihydro-2H-pyrido[3,4-f][1,4]oxazepine-9-carbonitrile] as the compound, how does the IC50 read?
Its IC50 is 0.1 to 100 nM.

`CC(C)(C(=O)N1CCOc2c(C#N)cncc2C1)C1CN(c2ncc(F)cn2)C1` [Example 85, 4-[2-[1-(5-fluoropyrimidin-2-yl)azetidin-3-yl]-2-methyl-propanoyl]-3,5-dihydro-2H-pyrido[3,4-f][1,4]oxazepine-9-carbonitrile] was tested. Which IC50 did it give?
The IC50 was 100 to 1000 nM.

For `CC(C)(C(=O)N1CCOc2c(Cl)cncc2C1)C(F)F` [Example 61, 1-(9-chloro-3,5-dihydro-2H-pyrido[3,4-f][1,4]oxazepin-4-yl)-3,3-difluoro-2,2-dimethyl-propan-1-one], which IC50 is on record?
The IC50 was 100 to 1000 nM.

For `CC(C)(C(=O)N1CCOc2c(C#N)cccc2C1)C1CC1` [Example 26, 4-(2-cyclopropyl-2-methyl-propanoyl)-3,5-dihydro-2H-1,4-benzoxazepine-9-carbonitrile], which IC50 is on record?
Its IC50 is 0.1 to 100 nM.

With `N#Cc1cncc2c1OCCN(C(=O)C1(C(F)F)CCN(c3ncc(F)cn3)CC1)C2` [Example 94, 4-[4-(difluoromethyl)-1-(5-fluoropyrimidin-2-yl)piperidine-4-carbonyl]-3,5-dihydro-2H-pyrido[3,4-f][1,4]oxazepine-9-carbonitrile] as the compound, how does the IC50 read?
The IC50 was 100 to 1000 nM.

For `CC(C)(C(=O)N1CCOc2c(F)cccc2C1)C1CC1` [Example 15, 2-cyclopropyl-1-(9-fluoro-3,5-dihydro-2H-1,4-benzoxazepin-4-yl)-2-methyl-propan-1-one], which IC50 is on record?
Its IC50 is 0.1 to 100 nM.

For `CC(C)(CSc1ncc(F)cn1)C(=O)N1CCOc2c(C#N)cncc2C1` [Example 181], which IC50 is on record?
Its IC50 is greater than 1000 nM.

`CC(F)(F)C(C)(C)C(=O)N1CCOc2c(C#N)cncc2C1` [Example 142, 4-(3,3-difluoro-2,2-dimethyl-butanoyl)-3,5-dihydro-2H-pyrido[3,4-f][1,4]oxazepine-9-carbonitrile] was tested. Which IC50 did it give?
Its IC50 is 0.1 to 100 nM.

With `COc1nc(N2CCC(C(=O)N3Cc4cncc(C#N)c4OC[C@H]3C)CC2)ncc1F` [Example 120, (3R)-4-(1-(5-fluoro-4-methoxypyrimidin-2-yl)piperidine-4-carbonyl)-3-methyl-2,3,4,5-tetrahydropyrido[3,4-f][1,4]oxazepine-9-carbonitrile] as the compound, how does the IC50 read?
Its IC50 is 0.1 to 100 nM.

For `COc1cnc(N2CCC(F)(C(=O)N3CCOc4c(C#N)cncc4C3)CC2)nc1` [Example 101, 4-[4-fluoro-1-(5-methoxypyrimidin-2-yl)piperidine-4-carbonyl]-3,5-dihydro-2H-pyrido[3,4-f][1,4]oxazepine-9-carbonitrile], which IC50 is on record?
The IC50 was 100 to 1000 nM.

For `CC(C)(C(=O)N1CCOc2c(cnc(Cl)c2C#N)C1)C(F)F` [Example 59, 8-chloro-4-(3,3-difluoro-2,2-dimethyl-propanoyl)-3,5-dihydro-2H-pyrido[3,4-f][1,4]oxazepine-9-carbonitrile], which IC50 is on record?
The IC50 was 100 to 1000 nM.

`N#Cc1cncc2c1OCCN(C(=O)C1(F)CCN(c3ccnc(C(F)(F)F)n3)CC1)C2` [Example 171] was tested. Which IC50 did it give?
The IC50 was 100 to 1000 nM.

`CC(C)(C(=O)N1CCOc2c(C#N)cncc2C1)C1CC1` [Example 30, 4-(2-cyclopropyl-2-methyl-propanoyl)-3,5-dihydro-2H-pyrido[3,4-f][1,4]oxazepine-9-carbonitrile] was tested. Which IC50 did it give?
Its IC50 is 0.1 to 100 nM.

With `C[C@@H]1COc2c(C#N)cncc2CN1C(=O)C(C)(C)CF` [Example 77, (3R)-4-(3-fluoro-2,2-dimethyl-propanoyl)-3-methyl-3,5-dihydro-2H-pyrido[3,4-f][1,4]oxazepine-9-carbonitrile] as the compound, how does the IC50 read?
The IC50 was 0.1 to 100 nM.

Which IC50 does the source give for `COC1(C(=O)N2CCOc3c(F)cncc3C2)CCN(c2ncc(F)cn2)CC1` [Example 121] here?
The IC50 was 0.1 to 100 nM.

`N#Cc1cncc2c1OCCN(C(=O)C1(F)CCN(c3ncc(C(F)(F)F)cn3)CC1)C2` [Example 170, 4-[4-fluoro-1-[5-(trifluoromethyl)pyrimidin-2-yl]piperidine-4-carbonyl]-3,5-dihydro-2H-pyrido[3,4-f][1,4]oxazepine-9-carbonitrile] was tested. Which IC50 did it give?
Its IC50 is 100 to 1000 nM.

For `Cn1ccc2nc(N3CCC(F)(C(=O)N4CCOc5c(C#N)cncc5C4)CC3)ncc21` [Example 108, 4-[4-fluoro-1-(5-methylpyrrolo[3,2-d]pyrimidin-2-yl)piperidine-4-carbonyl]-3,5-dihydro-2H-pyrido[3,4-f][1,4]oxazepine-9-carbonitrile], which IC50 is on record?
Its IC50 is 100 to 1000 nM.

`CC1(C(=O)N2CCOc3c(C#N)cncc3C2)CCN(c2ncc(F)cn2)CC1` [Example 40, 4-[1-(5-fluoropyrimidin-2-yl)-4-methyl-piperidine-4-carbonyl]-3,5-dihydro-2H-pyrido[3,4-f][1,4]oxazepine-9-carbonitrile] was tested. Which IC50 did it give?
Its IC50 is 0.1 to 100 nM.

For `COC(C)(C(=O)N1CCOc2c(C#N)cncc2C1)C1CC1` (stereo not drawn) [Example 154, 4-(2-cyclopropyl-2-methoxy-propanoyl)-3,5-dihydro-2H-pyrido[3,4-f][1,4]oxazepine-9-carbonitrile], which IC50 is on record?
Its IC50 is 100 to 1000 nM.

Which IC50 does the source give for `CC(C)(C(=O)N1CCOc2c(Br)cc(F)cc2C1)C(F)F` [Example 37, 1-(9-bromo-7-fluoro-3,5-dihydro-2H-1,4-benzoxazepin-4-yl)-3,3-difluoro-2,2-dimethyl-propan-1-one] here?
The IC50 was 100 to 1000 nM.

`CC(C)(CC(F)F)C(=O)N1CCOc2c(F)cccc2C1` [Example 16, 4,4-difluoro-1-(9-fluoro-3,5-dihydro-2H-1,4-benzoxazepin-4-yl)-2,2-dimethyl-butan-1-one] was tested. Which IC50 did it give?
The IC50 was 0.1 to 100 nM.

How did the IC50 turn out when `CC(C)(CC1CC1)C(=O)N1CCOc2c(C#N)cncc2C1` [Example 58, 4-(3-cyclopropyl-2,2-dimethyl-propanoyl)-3,5-dihydro-2H-pyrido[3,4-f][1,4]oxazepine-9-carbonitrile] was run?
Its IC50 is 100 to 1000 nM.

Which IC50 does the source give for `N#Cc1cncc2c1OCCN(C(=O)C1(Cl)CCN(c3ncc(F)cn3)CC1)C2` [Example 177, 4-[4-chloro-1-(5-fluoropyrimidin-2-yl)piperidine-4-carbonyl]-3,5-dihydro-2H-pyrido[3,4-f][1,4]oxazepine-9-carbonitrile] here?
Its IC50 is 0.1 to 100 nM.

`CC(C)(C(=O)N1CCOc2ccc(Cl)cc2C1)C(F)F` [Example 10, 1-(7-chloro-2,3-dihydrobenzo[f][1,4]oxazepin-4(5H)-yl)-3,3-difluoro-2,2-dimethylpropan-1-one] was tested. Which IC50 did it give?
The IC50 was 100 to 1000 nM.

With `COc1nc(N2CCC(OC)(C(=O)N3CCOc4c(F)cncc4C3)CC2)ncc1F` [Example 122, (9-fluoro-3,5-dihydro-2H-pyrido[3,4-f][1,4]oxazepin-4-yl)-[1-(5-fluoro-4-methoxy-pyrimidin-2-yl)-4-methoxy-4-piperidyl]methanone] as the compound, how does the IC50 read?
Its IC50 is 0.1 to 100 nM.

Same assay, conditions: GST-hRIPK1 (8-327), mean of at least two independent experiments

Which IC50 does the source give for `C=CC(C)(C)C(=O)N1CCOc2c(C#N)cncc2C1` [Example 271, 4-(2,2-dimethylbut-3-enoyl)-3,5-dihydro-2H-pyrido[3,4-f][1,4]oxazepine-9-carbonitrile] here?
The IC50 was 0.1 to 100 nM.

How did the IC50 turn out when `N#Cc1cncc2c1OCCN(C(=O)C1CCN(c3ncc(F)cn3)CCO1)C2` (stereo not drawn) [Example 231, 4-[4-(5-fluoropyrimidin-2-yl)-1,4-oxazepane-7-carbonyl]-3,5-dihydro-2H-pyrido[3,4-f][1,4]oxazepine-9-carbonitrile] was run?
Its IC50 is greater than 1000 nM.

`N#Cc1cncc2c1OCCN(C(=O)C1CCN(c3ccnc4c(F)cnn34)C[C@@H]1F)C2` (stereo partly drawn) [Example 226, 4-[(3,4)-trans-3-fluoro-1-(3-fluoropyrazolo[1,5-a]pyrimidin-7-yl)piperidine-4-carbonyl]-3,5-dihydro-2H-pyrido[3,4-f][1,4]oxazepine-9-carbonitrile] was tested. Which IC50 did it give?
Its IC50 is 0.1 to 100 nM.

`CC(C)(C(=O)N1CCOc2c(C#N)cncc2C1)[C@H]1C[C@@H](Cn2nccn2)C1` [Example 291, cis-4-[2-methyl-2-[3-(triazol-2-ylmethyl)cyclobutyl]propanoyl]-3,5-dihydro-2H-pyrido[3,4-f][1,4]oxazepine-9-carbonitrile] was tested. Which IC50 did it give?
The IC50 was 100 to 1000 nM.

Which IC50 does the source give for `CC(C)(C(=O)N1CCOc2c(C#N)cncc2C1)C1CC(n2ccnn2)C1` (stereo not drawn) [Example 276, 4-[2-Methyl-2-[3-(triazol-1-yl)cyclobutyl]propanoyl]-3,5-dihydro-2H-pyrido[3,4-f][1,4]oxazepine-9-carbonitrile] here?
The IC50 was greater than 1000 nM.

How did the IC50 turn out when `CC(F)C(C)(C)C(=O)N1CCOc2c(C#N)cncc2C1` (single isomer, unassigned) [Example 272, 4-(3-Fluoro-2,2-dimethyl-butanoyl)-3,5-dihydro-2H-pyrido[3,4-f][1,4]oxazepine-9-carbonitrile] was run?
The IC50 was 0.1 to 100 nM.

Which IC50 does the source give for `CC(F)C(C)(C)C(=O)N1CCOc2c(C#N)cncc2C1` (single isomer, unassigned) [Example 273, 4-(3-Fluoro-2,2-dimethyl-butanoyl)-3,5-dihydro-2H-pyrido[3,4-f][1,4]oxazepine-9-carbonitrile] here?
Its IC50 is 100 to 1000 nM.

For `CC(F)(F)C(C)(CF)C(=O)N1CCOc2c(C#N)cncc2C1` (stereo not drawn) [Example 267, 4-[3,3-Difluoro-2-(fluoromethyl)-2-methyl-butanoyl]-3,5-dihydro-2H-pyrido[3,4-f][1,4]oxazepine-9-carbonitrile], which IC50 is on record?
Its IC50 is 100 to 1000 nM.

How did the IC50 turn out when `CCC(C)(CC#N)C(=O)N1CCOc2c(C#N)cncc2C1` (single isomer, unassigned) [Example 265, 4-[2-(Cyanomethyl)-2-methyl-butanoyl]-3,5-dihydro-2H-pyrido[3,4-f][1,4]oxazepine-9-carbonitrile] was run?
The IC50 was 0.1 to 100 nM.

How did the IC50 turn out when `N#Cc1cncc2c1OCCN(C(=O)C1(F)CCN(c3nc(Cl)ncc3F)CC1)C2` [Example 202, 4-[1-(2-chloro-5-fluoro-pyrimidin-4-yl)-4-fluoro-piperidine-4-carbonyl]-3,5-dihydro-2H-pyrido[3,4-f][1,4]oxazepine-9-carbonitrile] was run?
Its IC50 is 0.1 to 100 nM.

With `CC1(C(=O)N2CCOc3c(C#N)cncc3C2)CCN(c2ncc(F)cn2)CC1(F)F` (single isomer, unassigned) [Example 284, 4-[3,3-Difluoro-1-(5-fluoropyrimidin-2-yl)-4-methyl-piperidine-4-carbonyl]-3,5-dihydro-2H-pyrido[3,4-f][1,4]oxazepine-9-carbonitrile] as the compound, how does the IC50 read?
Its IC50 is 0.1 to 100 nM.
